Test system: 648629-189-R-J1-PDC spheroids with HUVEC/MSC, viability
Test: Anticancer human tumor 648629-189-R-J1-PDC patient-derived bladder carcinoma cell line growth inhibition [PI3K]
Details: for IC50: curve of first compound; for viability, T/C: stronger effect = lower value
Excerpt: Combinatorial screen of targeted agents with the PI3K inhibitors inavolisib, alpelisib, duvelisib, and copanlisib in multi-cell type tumor spheroids
A high-throughput screen of multi-cell type tumor spheroids was designed to identify active combinations of targeted small molecules and PI3K pathway inhibitors. Complex spheroids include a stromal component modeled by human endothelial cells (HUVEC) and fibroblasts modeled by human mesenchymal stem cells (MSCs). The concentration ranges selected for each drug and investigational agent were based upon clinically achievable concentrations if the clinical Cmax of the agent was known.
Compounds. The drugs and investigational agents: inavolisib (NSC800729), alpelisib (NSC765974), duvelisib (NSC772469), copanlisib (NSC816437), ipatasertib (NSC767898), afuresertib (NSC778305), talazoparib (NSC767125), sapanisertib (NSC764658), selumetinib (NSC741078), tovorafenib (DAY101, NSC766906), vemurafenib (NSC761431), ravoxertinib (NSC781343), sotorasib (NSC818433), MRTX1133 (NSC 836407), abemaciclib (NSC 768073), palbociclib (NSC758247), venetoclax (NSC 766270), SY5609 (NSC837396), enzalutamide (NSC755605), and darolutamide (NSC825331), were obtained from the National Cancer Institute (NCI) Developmental Therapeutics Program Chemical Repository. The FDA-approved anticancer drug set is available from the NCI Developmental Therapeutics Program. […] The stock solutions were prepared in dimethyl sulfoxide (DMSO, Sigma-Aldrich, St. Louis, MO, cat. D2650) at 800-fold the tested concentration and stored at -70 degrees C prior to their use. All drugs and investigational agents were tested over a range starting from a high concentration at or near the clinical Cmax and decreasing in half-log increments. If the clinical Cmax for an agent had not been determined, the highest concentration tested was 10 microM.
Cell Culture. All cells were maintained in an incubator at 37 degrees C and 5% CO2 with 95% humidity. The PDC lines were cultured according to standard operating procedures established by the NCI PDMR (https://pdmr.cancer.gov/sops/default.htm). All PDCs were thawed and cultured in Matrigel-coated flasks prepared with a working solution of 1X Ham's F-12 nutrient mix, without supplementation (Invitrogen, Waltham, MA, cat. 11765054), 100 U/mL penicillin-streptomycin (Invitrogen, cat. 15140122), and 2.5% Matrigel (Corning Inc., Corning, NY, cat. 354248) for the first three passages. The 354836-022-R-J1-PDC, 475296-252-R-J1-PDC, and 997726-040-R-J2-PDC lines were cultured in 6A media, which includes advanced DMEM/F-12 (Thermo Fisher Scientific, cat. 12634028), 10 mM HEPES (Thermo Fisher Scientific, cat. 15630080), 1X GlutaMAX supplement (Thermo Fisher Scientific, cat. 35050061), 0.1 mg/mL primocin (InvivoGen, San Diego, CA, cat. ant-pm-2), 10% defined fetal bovine serum, heat inactivated (HyClone Laboratories Inc., Logan, UT, cat. SH30070.03HI), 50% L-WRN conditioned media (ATCC, cat. CRL-3276), 1.25 mM N-Acetyl-L-cysteine (Sigma-Aldrich, cat. A9165), 10 mM nicotinamide (Sigma-Aldrich, cat. N0636), 1X B-27 supplement (Thermo Fisher Scientific, cat. 17504044), 1X N-2 supplement (Thermo Fisher Scientific, cat. 17502048), and 10 microM Y-27632 dihydrochloride (Tocris Bioscience, Bristol, United Kingdom, cat. 1254). The 624824-186-R-J2-PDC line was cultured in 6C/Colon 1B media, which includes all 6A media components plus 50 ng/mL human EGF recombinant protein (Thermo Fisher Scientific, cat. PHG0311). […]
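Further: spheroids exposed to agents for seven days before reading.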
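Wherever viability, T/C is given: percent of vehicle control luminescence where 100% = DMSO treated spheroids.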

Work on `Cn1cnc2c(F)c(Nc3ccc(Br)cc3Cl)c(C(=O)NOCCO)cc21` + CC(Nc1ccc2c(c1)OCCn1cc(N3C(=O)OCC3C(F)F)nc1-2)C(N)=O yielded an IC50 (second compound 0.00316 µM) greater than 3 µM, an IC50 (second compound 0.01 µM) greater than 3 µM and an IC50 (second compound 0.0316 µM) greater than 3 µM. The IC50 (second compound 0.1 µM) was greater than 3 µM, the IC50 (second compound 0.316 µM) was greater than 3 µM and the IC50 (second compound 1 µM) was greater than 3 µM. For the same compound, the viability, T/C (second compound 0.00316 µM, first compound 0.00949 µM) was 95.5%, the viability, T/C (second compound 0.00316 µM, first compound 0.03 µM) was 103% and the viability, T/C (second compound 0.00316 µM, first compound 0.0949 µM) was 99.2%. It also gave a viability, T/C (second compound 0.00316 µM, first compound 0.3 µM) of 91.8%, a viability, T/C (second compound 0.00316 µM, first compound 0.949 µM) of 94.4% and a viability, T/C (second compound 0.00316 µM, first compound 3 µM) of 81.6%. The viability, T/C (second compound 0.01 µM, first compound 0.00949 µM) was 93.4%, the viability, T/C (second compound 0.01 µM, first compound 0.03 µM) was 91.2% and the viability, T/C (second compound 0.01 µM, first compound 0.0949 µM) was 92.9%. For the same compound, the viability, T/C (second compound 0.01 µM, first compound 0.3 µM) was 91.8%, the viability, T/C (second compound 0.01 µM, first compound 0.949 µM) was 103% and the viability, T/C (second compound 0.01 µM, first compound 3 µM) was 81.1%. The viability, T/C (second compound 0.0316 µM, first compound 0.00949 µM) was 98.5%, the viability, T/C (second compound 0.0316 µM, first compound 0.03 µM) was 96.2% and the viability, T/C (second compound 0.0316 µM, first compound 0.0949 µM) was 87.5%. For the same compound, the viability, T/C (second compound 0.0316 µM, first compound 0.3 µM) was 89.3%, the viability, T/C (second compound 0.0316 µM, first compound 0.949 µM) was 95.2% and the viability, T/C (second compound 0.0316 µM, first compound 3 µM) was 79.2%. It also gave a viability, T/C (second compound 0.1 µM, first compound 0.00949 µM) of 90.7%, a viability, T/C (second compound 0.1 µM, first compound 0.03 µM) of 91.7% and a viability, T/C (second compound 0.1 µM, first compound 0.0949 µM) of 82.6%. It also gave a viability, T/C (second compound 0.1 µM, first compound 0.3 µM) of 92.2%, a viability, T/C (second compound 0.1 µM, first compound 0.949 µM) of 93.9% and a viability, T/C (second compound 0.1 µM, first compound 3 µM) of 75.8%. For the same compound, the viability, T/C (second compound 0.316 µM, first compound 0.00949 µM) was 81.1%, the viability, T/C (second compound 0.316 µM, first compound 0.03 µM) was 79.2% and the viability, T/C (second compound 0.316 µM, first compound 0.0949 µM) was 70.3%. It also gave a viability, T/C (second compound 0.316 µM, first compound 0.3 µM) of 78.5%, a viability, T/C (second compound 0.316 µM, first compound 0.949 µM) of 74.3% and a viability, T/C (second compound 0.316 µM, first compound 3 µM) of 69.1%. The viability, T/C (second compound 1 µM, first compound 0.00949 µM) was 66.1%, the viability, T/C (second compound 1 µM, first compound 0.03 µM) was 70.4% and the viability, T/C (second compound 1 µM, first compound 0.0949 µM) was 66.4%. For the same compound, the viability, T/C (second compound 1 µM, first compound 0.3 µM) was 96.4%, the viability, T/C (second compound 1 µM, first compound 0.949 µM) was 66% and the viability, T/C (second compound 1 µM, first compound 3 µM) was 51%.
